Data as given in PubChem BioAssay AID651974 (The Scripps Research Institute Molecular Screening Center, 2013).
Calls of active or inactive are those of the source. How the calls were made is not given here.

Assay: GAL4-VP16 transactivation reporter inhibitors, late-stage follow-up, counter-screen for LRH-1 inverse agonist project, cell-based, luminescence, dose response (AID 651974)
Conditions: HEK293 cells transfected with Gal4-VP16 and pGL4.31 luciferase reporter

Row | SMILES | IC50
1 | CC(=O)Nc1ncc(Cc2cc(Cl)ccc2Cl)s1 | > 35.9 µM (inactive)
2 | O=C(Nc1ccc(Br)cn1)c1ccc([N+](=O)[O-])o1 | > 35.9 µM (inactive)
3 | CCOc1ccc(OCCC(=O)OCC(=O)Nc2ccc3c(c2)OCCO3)cc1 | > 35.9 µM (inactive)
4 | COC(=O)c1ccc(NC(=O)CSc2nn3c(=O)c(C)nnc3s2)cc1 | > 35.9 µM (inactive)
